# Test results as given in publication PMC9936538, “Structure–Activity Relationship of N-Ethyl-Hexedrone Analogues: Role of the α-Carbon Side-Chain Length in the Mechanism of Action, Cytotoxicity, and Behavioral Effects in Mice” (ACS Chemical Neuroscience, 2023).
# How the values were obtained:
# Swiss CD-1 mice = assay: Conditioned place preference (CPP); assay type: in vivo; conditions: for CPP preference score vs saline: 3 mg/kg i.p.
# Description: Male Swiss CD-1 mice (Janvier, Le Genest, France) weighing 30–35 g (6–8 weeks old), housed in temperature-controlled conditions (22 ± 1 °C) under a 12 h light/dark cycle and with free access to food and drinking water (standard laboratory diet, Panlab SL, Barcelona, Spain), were randomly assigned to an experimental group. Efforts were made to minimize animal use and suffering.
# The potential of the studied compounds to induce reward was determined using a place conditioning paradigm, as described.[6] For this experiment, an apparatus with two distinct compartments, with differences in tactile and visual cues, communicated by a central corridor, has been used. In brief, CPP was performed in three phases: preconditioning test, conditioning, and postconditioning test. During the preconditioning phase (day 0), mice were placed in the middle of the corridor and had free access to both compartments for 15 min. The time spent in each compartment was recorded and monitored using a specific tracking software (Smart 3.0 Panlab, Barcelona, Spain). […] In the alternative session, mice received a saline i.p. injection and were placed for 20 min in the other compartment. Mice in the control group received a saline injection in every session. The compartment and session in which mice received the drug were randomized. On the test day (postconditioning phase), the same conditions as in the preconditioning phase were applied. A preference score was calculated as the difference between the time spent in the drug-paired compartment in the postconditioning test minus the time spent in the preconditioning phase.
# hSERT = biological target: T1, hSERT (Homo sapiens, UniProt P31645); assay: Transporter binding, [3H]imipramine binding at hSERT (HEK293 membranes)
# T1 construct: expressed in transfected cells; host or cells: HEK293
# T1 sequence (P31645 whole entry): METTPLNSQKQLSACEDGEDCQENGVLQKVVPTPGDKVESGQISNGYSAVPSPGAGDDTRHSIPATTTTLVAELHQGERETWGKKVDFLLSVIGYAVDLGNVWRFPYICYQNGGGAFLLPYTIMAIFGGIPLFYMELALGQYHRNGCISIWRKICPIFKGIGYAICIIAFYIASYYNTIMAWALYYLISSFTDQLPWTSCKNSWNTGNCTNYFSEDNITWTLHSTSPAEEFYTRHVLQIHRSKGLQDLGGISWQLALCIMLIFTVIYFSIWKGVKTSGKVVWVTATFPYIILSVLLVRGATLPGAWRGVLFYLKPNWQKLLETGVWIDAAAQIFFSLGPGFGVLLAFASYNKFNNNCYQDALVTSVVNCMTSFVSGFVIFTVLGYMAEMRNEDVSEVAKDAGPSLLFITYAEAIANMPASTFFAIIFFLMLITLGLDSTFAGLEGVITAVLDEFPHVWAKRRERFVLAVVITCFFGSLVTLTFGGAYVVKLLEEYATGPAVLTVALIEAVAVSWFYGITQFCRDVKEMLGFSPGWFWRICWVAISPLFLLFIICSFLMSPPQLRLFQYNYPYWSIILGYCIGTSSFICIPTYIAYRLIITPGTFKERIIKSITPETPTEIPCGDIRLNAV
# Description: For membrane preparation, cells were harvested from 80 to 90% confluent dishes. HEK293 cells were washed with ice-cold phosphate-buffered saline (PBS), mechanically detached from the dish using a plastic scraper, and pelleted by centrifugation (400g for 10 min at 4 °C). The pellet was resuspended in HME buffer (20 mM HEPES NaOH, 1 mM EDTA, 2 mM MgCl2; pH 7.4), subjected to two freeze–thaw cycles in liquid nitrogen and homogenized through sonication at 4 °C. Membranes were then collected by centrifugation (40,000g for 30 min at 4 °C) and resuspended in an appropriate volume of HME buffer. The different membrane preparations aliquots were kept at −80 °C. Protein concentration was determined using the Bio-Rad Protein Reagent (Bio-Rad Laboratories, Hercules, CA).
# Binding assays were performed as described.[6] […] This nonspecific binding also allows subtracting from the total binding values of the binding to other components such as membrane lipids or microfiber filters. Incubation was performed for 1 h at 22 °C. Binding reactions are stopped by rapid filtration of the membranes through GF/C glass microfiber filters presoaked with 0.5% polyethyleneimine and rapid washing with ice-cold wash buffer (120 mM NaCl, 2 mM MgCl2, 10 mM Tris, and 100 μM ZnCl2 for hDAT, and […], 2 mM MgCl2, and 10 mM Tris, for hSERT). Thereafter, the filters are placed into vials, a scintillation cocktail is added and trapped radioactivity is quantified by liquid scintillation counting. Specific binding of each drug to the transporter was defined as the difference between total binding (binding buffer in absence of the drug) and nonspecific binding. For each cathinone, four independent experiments carried out on duplicates were performed.
# For in vitro assays, data were normalized with 100% defined as the mean of the technical replicates in the control group and expressed as mean ± SEM. Nonlinear regression was used to fit the different competition curves. Data were plotted and best fitted to a sigmoidal dose–response curve from which an IC50 or LC50 value was obtained. Transporter ratios were calculated as (1/DAT IC50: 1/SERT IC50). […] The Cheng–Prusoff equation was used to calculate Ki (affinity): Ki = EC50/(1 + [radioligand concentration/Kd]).[65] The sample size for behavioral experiments was determined using GPower software. One-way or two-way ANOVA, and subsequent Tukey’s posthoc test, conducted only if F was significant, was used to determine the effects of cathinones on cytotoxicity, HLA, OF, and CPP experiments. The α error probability was set at 0.05 (p < 0.05). The exact size group for the behavioral experiments is shown in the corresponding figure legends. All statistic calculations were carried out using GraphPad Prism (GraphPad software, San Diego, CA, USA).
# [1] = Cytotoxicity in NGF-differentiated PC12 cells, WST-8 cell viability assay; assay type: cell-based; conditions: rat, WST-8, 24 h exposure, mean ± SEM of 3–4 experiments, read-out: LC50 (approximated), cell viability
# Description: Pheochromocytoma cells (PC12) cells were cultured in collagen-coated dishes in DMEM supplemented with heat-inactivated 5% FBS, 10% horse serum, 10 mM HEPES, 2 mM glutamine, 25 UI/mL penicillin, and 25 μg/mL streptomycin (maintenance medium) and grown at 37 °C in a humidified 5% CO2 atmosphere. Cell differentiation was performed as described[54] with minor modifications. In brief, cells were seeded (250.000 cells/well) onto 96-well plates in the maintenance medium, and after 24 h, the medium was changed to a differentiation medium containing 50 ng/mL NGF. After 24 h, neurite outgrowth was already apparent.
# Treatments with different concentrations of the drug in DMEM were performed 48 h after cell differentiation. 10 μL of the tested drug was added per well, in triplicate, and cells were incubated for 24 h at 37 °C in a humidified 5% CO2 atmosphere. Thereafter, the medium was removed and immediately replaced with a maintenance medium. 10 μL of the CCK-8 Cell Counting Kit, based on 2-(2-methoxy-4-nitrophenyl)-3-(4-nitrophenyl)-5-(2,4-disulfophenyl)-2H-tetrazolium, monosodium salt (WST-8), was added per well and was incubated for 2 h at 37 °C in a humidified 5% CO2 atmosphere. This method has been defined as a good alternative to the 3-(4,5-dimethylthiazol-2-yl)-2,5-diphenyltetrazoliumbromide (MTT) assay.[63] Optical density was measured at 450 nm, using a microplate reader.
# For in vitro assays, data were normalized with 100% defined as the mean of the technical replicates in the control group and expressed as mean ± SEM. Nonlinear regression was used to fit the different competition curves. Data were plotted and best fitted to a sigmoidal dose–response curve from which an IC50 or LC50 value was obtained. Transporter ratios were calculated as (1/DAT IC50: 1/SERT IC50). Although IC50 values at inhibiting 5-HT uptake for some compounds tested are expressed as >100 μM for clarity purposes, DAT/SERT ratios were calculated with the original raw data. The Cheng–Prusoff equation was used to calculate Ki (affinity): Ki = EC50/(1 + [radioligand concentration/Kd]).[65] The sample size for behavioral experiments was determined using GPower software. One-way or two-way ANOVA, and subsequent Tukey’s posthoc test, conducted only if F was significant, was used to determine the effects of cathinones on cytotoxicity, HLA, OF, and CPP experiments. The α error probability was set at 0.05 (p < 0.05). The exact size group for the behavioral experiments is shown in the corresponding figure legends. All statistic calculations were carried out using GraphPad Prism (GraphPad software, San Diego, CA, USA).
Structure (SMILES),CPP preference score vs saline (Swiss CD-1 mice),CPP rewarding effect vs saline (Swiss CD-1 mice; 10 mg/kg i.p.),Ki (hSERT),CC50 at 24 h [1],"CPP rewarding effect vs saline (Swiss CD-1 mice; any dose tested (3, 10, 30 mg/kg i.p.))"
"CCNC(CC)C(=O)c1ccccc1 (stereo not drawn) [NEB, N-ethyl-buphedrone]",significant preference score,produce rewarding effects,0.0901 mM,6.24 mM,
"CCNC(C)C(=O)c1ccccc1 (stereo not drawn) [NEC, N-ethyl-cathinone]",significant preference score,produce rewarding effects,> 0.1 mM,3.97 mM,
"CCCCC(NCC)C(=O)c1ccccc1 (stereo not drawn) [NEH, N-ethyl-hexedrone]",,produce rewarding effects,0.0359 mM,3.28 mM,
"CCCCCC(NCC)C(=O)c1ccccc1 (stereo not drawn) [NEHP, N-ethyl-heptedrone]",,,0.0406 mM,1.26 mM,did not induce a significant rewarding effect
"CCCC(NCC)C(=O)c1ccccc1 (stereo not drawn) [NEPD, N-ethyl-pentedrone]",significant preference score,produce rewarding effects,0.0246 mM,3.82 mM,
